Broadly, the mortality is the percentage killed.

Series [1] in a line: Acute toxicity in oral application to mice. The note with it: mouse, in vivo, ICR male mice, after seven days. As to the method:
Biological Test 9 Acute Toxicity in Oral Application to Mice
Each of the present compound was diluted with corn oil to a predetermined concentration. After subjecting the mice to a twenty-hour fasting, 0.1 ml of the diluted solution per 10 g weight was forcibly applied into the stomach of each ICR male 6-week old mouse (weight: 24 to 31 g). The mice were given food and water four hours after the application and thereafter regularly fed and watered, and kept in a cage. After seven days, the mortality was examined for the mice (4 mice/group).

Series [2] deals with root-knot nematodes. In words: Activity against root-knot nematodes. The series is classed as in vivo. Also on record: key: -: substantially no root knots; +: several to ten odds root knots; ++: larger number of root knots (heavier damage than +). As to conditions: 25 ppm active ingredient in soil, tomato root, after four weeks. As to the method: Biological Test 6 Activity Against Root-knot Nematodes
One ml of a 500 ppm aqueous solution of each of the present compounds obtained by diluting each emulsifiable concentrate prepared from each of the present compounds according to the formulation example 1 was mixed with 19 g of soil contaminated with root-knot nematodes (concentration of active ingredient in soil: 25 ppm). After the soil was kept at 27° C. for 24 hours, the root of a tomato plant (approximately two weeks after sprouting) in a cup was covered with the soil and some water was given to the plant. After four weeks, damage to the root of the tomato plant was evaluated according to the following criteria:
-: substantially no root knots
+: several to ten odds root knots
++: larger number of root knots (heavier damage than +)

Series [3] deals with Blattella germanica. As to the kind of experiment: Insecticidal activity against Blattella germanica. The note with it: 24 h, 0.7 ml of 500 ppm on filter paper, ten male cockroaches, after one day. The format is in vivo. The protocol: Biological Test 3 Insecticidal Avtivity Against Blattella germanica
Filter paper of 5.5 cm in diameter was laid in the bottom of a polyethylene cup (diameter: 5.5 cm). After 0.7 ml of a 500 ppm aqueous solution obtained by diluting each emulsifiable concentrate prepared from each of the present compounds according to the formulation example 1 was dropped on the filter paper and approximately 30 mg of sucrose was uniformly scattered and put on the filter paper as bait, ten male cockroaches (Blattella germanica) were left in the cup with a cover. After one day, the mortality was examined for the cockroaches.

For series [4], the system named is larvae of Spodoptera litura. In words: Insecticidal activity against larvae of Spodoptera litura. As to conditions: 144 h, 4-instar larvae, artificial bait, after six days. The series is classed as in vivo. The protocol: Biological Test 1 Insecticidal Activity Against Larvae of Spodoptera litura
Emulsifiable concentrates were prepared for each of the present compounds according to the formulation example 1. Thirteen grams of artificial bait for Spodoptera litura were placed in a polyethylene cup (diameter: 11 cm) and impregnated with 2 ml of the emulsifiable concentrate diluted with water (500 ppm). Ten 4-instar larvae of Spodoptera litura were put in the polyethylene cup. After six days, the mortality of the larvae was examined.

For series [5], the system named is larvae of Diabrotica undecimpunctata. In words: Insecticidal activity against larvae of Diabrotica undecimpunctata. The format is in vivo. As to conditions: 1 ml of 50 ppm on filter paper, approximately thirty eggs, after eight days. The protocol: Biological Text 5 Insecticidal Activity Against Larvae of Diabrotica undecimpunctata
Filter paper of 5.5 cm in diameter was laid in the bottom of a polyethylene cup (diameter: 5.5 cm). After 1 ml of a 50 ppm aqueous solution obtained by diluting each of the emulsifiable concentrate prepared from each of the present compounds according to the formulation example 1 was dropped on the filter paper and one sprouting corn crop was placed as bait on the paper, approximately thirty eggs of Diabrotica undecimpunctata were left on the filter paper. After eight days, the rate of hatched larvae was examined. The activity were evaluated according to the following criteria:
B: Mortality not less than 90% but less than 100%
C: Mortality less than 90%

The test system of series [6] is Musca domestica. As to the kind of experiment: Insecticidal activity against Musca domestica. The format is in vivo. The note with it: 24 h, 0.7 ml of 500 ppm on filter paper, ten female house flies, after one day. As to the method: Biological Test 4 Insecticidal Activity Against Musca domestica
Filter paper of 5.5 cm in diameter was laid in the bottom of a polyethylene cup (diameter: 5.5 cm). After 0.7 ml of a 500 ppm aqueous solution obtained by diluting each emulsifiable concentrate prepared from each of the present compounds according to the formulation example 1 was dropped on the filter paper and approximately 30 mg of sucrose was uniformly scattered, and put on the filter paper as bait, ten female house flies (Musca domestica) were left in the cup with a cover. After one day, the mortality was examined for the flies.

Series [7] deals with Tetranychus cinnabarinus. In words: Activity against Tetranychus cinnabarinus. The series is classed as in vivo. Also on record: key: -: substantially no damage; +: little damage; ++: heavy damage. The note with it: 500 ppm, 15 ml spray plus 2 ml soil injection, kidney bean, after eight days. As to the method:
Biological Test 8 Activity Against Tetranychus cinnabarinus
Ten male mites (Tetranychus cinnabarinus) per leaf were placed on a pot-planted kidney bean (Phasseolus vulgaris: seven days after sowing) and kept in a thermostatic chamber. After six days, 15 ml of a 500 ppm aqueous solution obtained by diluting each emulsifiable concentrate of each of the present compounds according to the formulation example 1 was sprayed in a pot simultaneously with injection of 2 ml of the solution into soil. After eight days, damage to the plant by Tetranychus cinnabarinus was evaluated according to the following criteria:
-: substantially no damage

The test system of series [8] is larvae of Culex pipiens pallens. As to the kind of experiment: Insecticidal activity against larvae of Culex pipiens pallens. As to conditions: 3.5 ppm active ingredient in water, twenty last-instar larvae, after one day. The series is classed as in vivo. The protocol: Biological Test 7 Insecticidal Activity Against Larvae of Culex pipiens pallens
Each of emulsifiable concentrates prepared from each of the present compounds according to the formulation example 1 was diluted with water, and 0.7 ml of the diluted solution was added to 100 ml of ion-exchanged water (concentration of active ingredient: 3.5 ppm). Twenty last-instar larvae of Culex pipiens pallens were left in the water. After one day, the activity was evaluated according to the following criteria:
A: Mortality not less than 90%
B: Mortality not less than 10% but less than 90%
C: Mortality less than 10%

Series [9] concerns larvae of Nilaparvata lugens. In words: Insecticidal activity against larvae of Nilaparvata lugens. The series is classed as in vivo. As to conditions: 500 ppm aqueous solution, rice stalk dip, approximately 30 larvae, after six days. As to the method: Biological Test 2 Insecticidal Activity Against Larvae of Nilaparvata lugens
A stalk of a rice plant was dipped for one minute in a 500 ppm aqueous solution obtained by diluting each emulsifiable concentrate prepared from each of the present compounds according to the formulation example 1 and then air-dried. The rice plant stalk was placed in a polyethylene cup (diameter: 5.5 cm) where filter paper (diameter: 5.5 cm) impregnated with 1 ml of water was put. Approximately 30 larvae of Nilaparvata lugens were put in the polyethylene cup. After six days, the activity was evaluated according to the following criteria:
B: the number of the living larvae is not greater than 5
C: the number of the living larvae is 6 or more

In turn, `CCC(C)SP(=O)(NC)OC` (centres unmarked) [A, reference compound] registered a mortality at 168 h in series [1] (5 mg/kg) of 100%.

With `CCOP(=O)(SC(C)CC)N(CCC#N)C(=O)SC` (centres unmarked) [Compound 13], the Activity entry in series [2] was “-”; in series [5], “A (Mortality 100%)”; in [7], “-”; in series [8], “A (Mortality not less than 90%)”. For the same molecule, the mortality at 500 ppm in series [3], in series [4] and in series [6] was 100% throughout. The mortality at 168 h in series [1] (30 mg/kg) amounted to 0%.

With `CCCSP(=O)(OC)N(CC#N)C(=O)OCC` (centres unmarked) [Compound 2], the Activity entry in series [2] is given as “-”; in [5] it was “A (Mortality 100%)”; in series [7], “-”; in [8], “A (Mortality not less than 90%)”; in series [9], “A (no living larvae)”. In addition, the mortality at 500 ppm in series [3], in series [4] and in series [6] was 100% throughout.

As for `CCOP(=O)(SC(C)CC)N(CC#N)C(=O)OC` (centres unmarked) [Compound 9, O-ethyl S-sec-butyl N-cyanomethyl N-methoxycarbonyl phosphoroamidothiolate], the Activity result in [2] was “-”; in [5] it was “A (Mortality 100%)”; in [7], “-”; in series [8] it was “A (Mortality not less than 90%)”. Besides, the mortality at 500 ppm in series [3], in series [4] and in series [6] was 100% throughout. This molecule returned a mortality at 168 h in series [1] (30 mg/kg) of 0%.

Take `CCC(C)SP(=O)(OC)N(CC#N)C(=O)OC` (centres unmarked) [Compound 4]: the Activity entry in series [2] was “-”; in series [5] it was “A (Mortality 100%)”; in series [7], “-”; in [8], “A (Mortality not less than 90%)”; in [9] it was “A (no living larvae)”. In addition, the mortality at 500 ppm in [3], in [4] and in series [6] was 100% throughout.

In the case of `CCCSP(=O)(OC)N(CC#N)C(=O)OC` (centres unmarked) [Compound 1], the Activity result in [2] is given as “-”; in series [5], “A (Mortality 100%)”; in series [7], “-”; in [8], “A (Mortality not less than 90%)”; in series [9], “A (no living larvae)”. Moreover, the mortality at 500 ppm in [3], in series [4] and in series [6] was 100% in each case.

Values taken from patent US5449667A, “Amidothiophosphate derivative and insecticide, nematocide and acaricide containing the same as active ingredient” (priority 1993, dated 1995).
